ChEMBL document CHEMBL1201862, “PubChem BioAssay data set” (2004)
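Step 1: Grow cells in 96-well plates. Step 2: Expose to compound for 48 hours at 5 concentrations. Step 3: Interpolate endpoints linearly; if unreached, use highest concentration. Abbreviation: GI50, concentration required for 50% inhibition of growth.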 Activity calls are given as the source filed them. No stated cut-off is given here; in the data, active = GI50 up to about 1.1 µM and inactive = higher.

Tests used:
Assay in all cases: NCI tumour cell line growth inhibition, 48 h
A549 = test system: A549
COLO 205 = test system: COLO 205
HOP-62 = test system: HOP-62
HOP-92 = test system: HOP-92
IGROV-1 = test system: IGROV-1
MOLT-4 = test system: MOLT-4
OVCAR-5 = test system: OVCAR-5
RPMI-8226 = test system: RPMI-8226
RXF 393 = test system: RXF 393
SK-OV-3 = test system: SK-OV-3
SN12C = test system: SN12C
SNB-19 = test system: SNB-19
SNB-75 = test system: SNB-75
SW-620 = test system: SW-620
TK-10 = test system: TK-10
U-251 = test system: U-251
UACC-62 = test system: UACC-62
K562 = test system: K562
PC-3 = test system: PC-3
MDA-MB-435 = test system: MDA-MB-435

Measured: GI50

COc1ccc(-c2ccccc2)c(N/N=C2\CCCNC2=O)c1
inactive: A549 12.9 µM | COLO 205 > 100 µM | HOP-62 19.6 µM | HOP-92 > 100 µM | IGROV-1 > 100 µM | MOLT-4 > 100 µM | OVCAR-5 > 100 µM | RPMI-8226 > 100 µM | RXF 393 11 µM | SK-OV-3 96.2 µM | SN12C > 100 µM | SNB-19 81.7 µM | SNB-75 32.8 µM | SW-620 > 100 µM | TK-10 > 100 µM | U-251 > 100 µM | UACC-62 49 µM

CC1CC(c2ccc(Cl)c(Cl)c2)=Nc2ccccc2S1 (stereo not given)
inactive: A549 > 100 µM | COLO 205 > 100 µM | HOP-62 > 100 µM | HOP-92 > 100 µM | IGROV-1 > 100 µM | K562 > 100 µM | MOLT-4 > 100 µM | OVCAR-5 > 100 µM | RPMI-8226 > 100 µM | RXF 393 > 100 µM | SK-OV-3 > 100 µM | SN12C > 100 µM | SNB-19 > 100 µM | SNB-75 > 100 µM | SW-620 > 100 µM | TK-10 > 100 µM | U-251 > 100 µM | UACC-62 > 100 µM

C[n+]1c2ccccc2c(NC(CCCNC(=N)N)C(=O)O)c2ccccc21 (stereo not given)
inactive: A549 > 100 µM | COLO 205 > 100 µM | HOP-62 > 100 µM | HOP-92 > 100 µM | IGROV-1 > 100 µM | K562 > 100 µM | MOLT-4 > 100 µM | OVCAR-5 > 100 µM | RPMI-8226 7.55 µM | RXF 393 > 100 µM | SK-OV-3 > 100 µM | SN12C > 100 µM | SNB-19 > 100 µM | SNB-75 > 100 µM | SW-620 > 100 µM | TK-10 > 100 µM | U-251 > 100 µM | UACC-62 > 100 µM

COc1ccc2[nH]c3c(c2c1)[C@H]1CCC(C(C)(C)C)C[C@H]1[C@H]1C(=O)N(c2ccccc2)C(=O)[C@@H]31 (stereo not given in full)
inactive: A549 12.7 µM | COLO 205 11.4 µM | HOP-62 11.1 µM | HOP-92 6.21 µM | IGROV-1 > 58.7 µM | K562 20.6 µM | MOLT-4 20.9 µM | OVCAR-5 > 60.1 µM | RPMI-8226 33.3 µM | RXF 393 9.42 µM | SK-OV-3 15.6 µM | SN12C 11.9 µM | SNB-19 16.3 µM | SNB-75 5.97 µM | SW-620 20.2 µM | TK-10 22.6 µM | U-251 6.14 µM | UACC-62 31 µM

COC(=O)/C(C=O)=C/Sc1ccccc1
inactive: A549 11.3 µM | COLO 205 20 µM | HOP-62 45.4 µM | HOP-92 52.6 µM | IGROV-1 13.9 µM | K562 50.7 µM | MOLT-4 > 100 µM | OVCAR-5 37.6 µM | RPMI-8226 65.5 µM | RXF 393 15.3 µM | SK-OV-3 42.9 µM | SN12C 19.7 µM | SNB-19 54.5 µM | SNB-75 18.5 µM | SW-620 37.9 µM | TK-10 40.6 µM | U-251 17.1 µM | UACC-62 22.2 µM

O=C1C(Cl)=C(Cl)C(=O)N1C1C2CC3CC(C2)CC1C3 (stereo not given)
inactive: A549 > 100 µM | COLO 205 32.8 µM | HOP-62 > 100 µM | HOP-92 > 100 µM | IGROV-1 > 100 µM | K562 28 µM | MOLT-4 21.4 µM | OVCAR-5 > 100 µM | RPMI-8226 27 µM | RXF 393 94.6 µM | SK-OV-3 > 100 µM | SN12C > 100 µM | SNB-19 > 100 µM | SNB-75 > 100 µM | SW-620 47 µM | TK-10 > 100 µM | U-251 > 100 µM | UACC-62 > 100 µM

O=C1OC(c2ccccc2)=N/C1=C/NC(Cc1c[nH]c2ccccc12)C(=O)O (stereo not given)
inactive: A549 > 100 µM | COLO 205 > 100 µM | HOP-62 > 100 µM | HOP-92 > 100 µM | IGROV-1 > 100 µM | K562 > 100 µM | MOLT-4 > 100 µM | OVCAR-5 > 100 µM | RPMI-8226 > 100 µM | RXF 393 > 100 µM | SK-OV-3 > 100 µM | SN12C > 100 µM | SNB-19 > 100 µM | SNB-75 69.7 µM | SW-620 > 100 µM | TK-10 > 100 µM | U-251 > 100 µM | UACC-62 > 100 µM

O=c1cc(-c2ccc(Cl)cc2)oc2cc(OCCCOc3ccc4c(=O)cc(-c5ccc(Cl)cc5)oc4c3)ccc12
inactive: A549 > 100 µM | COLO 205 > 100 µM | HOP-62 > 100 µM | HOP-92 > 100 µM | IGROV-1 > 100 µM | K562 > 100 µM | MOLT-4 > 100 µM | OVCAR-5 > 100 µM | RPMI-8226 > 100 µM | RXF 393 > 100 µM | SK-OV-3 > 100 µM | SN12C > 100 µM | SNB-19 > 100 µM | SNB-75 45.2 µM | SW-620 > 100 µM | TK-10 > 100 µM | U-251 > 100 µM | UACC-62 > 100 µM

CCOC(=O)CCC(NC(=O)C(N)c1ccc([N+](=O)[O-])cc1)C(=O)NC(CCC(=O)OCC)C(=O)OCC (stereo not given)
inactive: A549 > 100 µM | COLO 205 > 100 µM | HOP-62 > 100 µM | HOP-92 > 100 µM | IGROV-1 > 100 µM | K562 > 100 µM | MOLT-4 > 100 µM | OVCAR-5 > 100 µM | PC-3 > 100 µM | RPMI-8226 > 100 µM | SN12C > 100 µM | SNB-19 > 100 µM | SNB-75 > 100 µM | SW-620 > 100 µM | TK-10 > 100 µM | U-251 > 100 µM | UACC-62 > 100 µM

CCN(CC)CCOC(NC(C)=O)(c1ccccc1)c1ccccc1
inactive: A549 > 100 µM | COLO 205 > 100 µM | HOP-62 > 100 µM | HOP-92 > 100 µM | IGROV-1 > 100 µM | MDA-MB-435 > 100 µM | MOLT-4 > 100 µM | OVCAR-5 > 100 µM | RPMI-8226 > 100 µM | RXF 393 > 100 µM | SK-OV-3 > 100 µM | SN12C > 100 µM | SNB-19 > 100 µM | SNB-75 > 100 µM | SW-620 > 100 µM | TK-10 > 100 µM | U-251 > 100 µM | UACC-62 > 100 µM

CC1=C(O)C(=O)c2cn(C)cc2C1=O
inactive: A549 > 100 µM | COLO 205 > 100 µM | HOP-62 > 100 µM | HOP-92 > 100 µM | IGROV-1 > 100 µM | K562 > 100 µM | MOLT-4 > 100 µM | OVCAR-5 > 100 µM | RPMI-8226 > 100 µM | RXF 393 > 100 µM | SK-OV-3 > 100 µM | SN12C > 100 µM | SNB-19 > 100 µM | SNB-75 > 100 µM | SW-620 > 100 µM | TK-10 > 100 µM | U-251 > 100 µM | UACC-62 > 100 µM

COC(=O)c1cc(/C=C/C(=O)Cc2ccccc2)cn1S(=O)(=O)c1ccccc1
inactive: A549 > 100 µM | COLO 205 > 100 µM | HOP-62 > 100 µM | IGROV-1 > 100 µM | K562 > 100 µM | MOLT-4 > 100 µM | OVCAR-5 > 100 µM | PC-3 > 100 µM | RXF 393 > 100 µM | SK-OV-3 > 100 µM | SN12C > 100 µM | SNB-19 > 100 µM | SNB-75 > 100 µM | TK-10 > 100 µM | UACC-62 > 100 µM

O=c1ccc(=O)c2c(=O)c3ccccc3c(=O)c1=2
inactive: A549 37.4 µM | COLO 205 99.3 µM | HOP-62 36.6 µM | HOP-92 > 100 µM | IGROV-1 > 100 µM | K562 > 100 µM | MOLT-4 23 µM | OVCAR-5 > 100 µM | RPMI-8226 27.5 µM | RXF 393 48.3 µM | SK-OV-3 > 100 µM | SN12C 38.5 µM | SNB-19 41.3 µM | SNB-75 > 100 µM | SW-620 32.7 µM | TK-10 > 100 µM | U-251 43.6 µM | UACC-62 36.7 µM

O=C(O)C1c2ccccc2C(C(=O)O)c2ccccc21 (stereo not given)
inactive: A549 > 100 µM | COLO 205 > 100 µM | HOP-62 > 100 µM | HOP-92 > 100 µM | IGROV-1 > 100 µM | K562 > 100 µM | MOLT-4 > 100 µM | OVCAR-5 > 100 µM | RPMI-8226 > 100 µM | RXF 393 > 100 µM | SK-OV-3 > 100 µM | SN12C > 100 µM | SNB-19 > 100 µM | SNB-75 > 100 µM | SW-620 > 100 µM | TK-10 > 100 µM | U-251 > 100 µM | UACC-62 > 100 µM

O=C1C2C3C=CC(C2C(=O)N1CO)C1C2C(=O)N(CO)C(=O)C2C31 (stereo not given)
inactive: A549 > 54.2 µM | COLO 205 > 48.2 µM | HOP-62 > 100 µM | HOP-92 > 100 µM | IGROV-1 > 100 µM | K562 > 48.6 µM | MOLT-4 74.1 µM | OVCAR-5 > 100 µM | RPMI-8226 21.8 µM | RXF 393 > 81.7 µM | SK-OV-3 > 100 µM | SN12C > 69.8 µM | SNB-19 > 100 µM | SNB-75 70.8 µM | SW-620 33.5 µM | TK-10 > 100 µM | U-251 > 67.1 µM | UACC-62 > 100 µM
